SMILES strings stand for the structures.

Experiment [1] has as its system MM.1S cells. Put plainly: Proliferation inhibition (IC50) in MM.1S cells, cell viability assay. The note with it: Homo sapiens, MM1.S, 72 h, read-out: IC50 (nM), proliferation inhibitory activity of MM.1S cells (half inhibitory concentration).
In experiment [2] the test system is ALCL cell line SR. Put plainly: Proliferation inhibition (IC50) in lymphoma cell line SR, cell viability assay. Format: cell-based. Conditions: 72 h, SR cells, WST reagent. The text has this: (§1) We tested the anti-proliferation activities of the compounds of the present invention in ALCL cell line SR and Mantle cell lymphoma Mino (which overexpressed IKZF1/3, but were not sensitive to immunomodulatory drugs) through a dose-dependent manner. […] The experiment was repeated more than three times.

Experiment [3] has as its system Mantle cell lymphoma Mino. Put plainly: Proliferation inhibition (IC50) in lymphoma cell line Mino, cell viability assay. The class given is cell-based. Conditions: Mino cells; for IC50: 72 h, WST reagent.
Excerpt: as §1

`O=C1CCC(N2Cc3c(SCc4ccc(CCNC56CC7CC(CC(C7)C5)C6)cc4)cccc3C2=O)C(=O)N1` (centres unmarked) [SIAIS287128, 3-(4-((4-(2-(adamantan-1-ylamino)ethyl)benzyl)thio)-1-oxoisoindolin-2-yl)piperidine-2,6-dione]: the IC50 in experiment [1] was 0.018 ± 0.005 nM; in experiment [2] (Homo sapiens, SR), roughly 0.3 nM; in experiment [2] it was 0.297 nM; in experiment [3] (Homo sapiens, MINO), roughly 0.29 nM; in experiment [3], 0.289 nM. For the same compound, in experiment [3] (versus pomalidomide IC50 48 nM), the “IC50 times lower than Pomalidomide” value was 165 times.

Turning to `O=C1CCC(N2Cc3c(SCCCCCCCNC45CC6CC(CC(C6)C4)C5)cccc3C2=O)C(=O)N1` (centres unmarked) [SIAIS1220155, 3-(4-((7-((adamantan-1-yl)amino)heptyl)thio)-1-oxoisoindolin-2-yl)piperidine-2,6-dione], the IC50 turned out to be 0.02 nM in experiment [1]; 7.42 nM in experiment [2] (Homo sapiens, SR); 0.776 nM in experiment [3] (Homo sapiens, MINO).

In the case of `O=C1CCC(N2Cc3c(SCc4ccc(CN5CCCCC5)cc4)cccc3C2=O)C(=O)N1` (centres unmarked) [SIAIS1220165, 3-(1-oxo-4-((4-(piperidin-1-ylmethyl)benzyl)thio)isoindolin-2-yl)piperidine-2,6-dione], the IC50 is 0.09 nM in experiment [1]; 1.89 nM in experiment [2] (Homo sapiens, SR); 5.83 nM in experiment [3] (Homo sapiens, MINO).

As to `O=C1CCC(N2Cc3c(SCCCCCCCNC45CC6CC(CC4C6)C5)cccc3C2=O)C(=O)N1` (centres unmarked) [SIAIS1228055, 3-(4-((7-((hexahydro-2,5-methanopentalen-3a(1H)-yl)amino)heptyl)thio)-1-oxoisoindolin-2-yl)piperidine-2,6-dione], the IC50 in experiment [1] stood at 0.028 nM.

As to `O=C1CCC(N2Cc3c(SCCCCCCCN[C@H]4C[C@H]5CC[C@@H]4C5)cccc3C2=O)C(=O)N1` (stereo partly drawn) [SIAIS1228059, 3-(4-((7-(((1R,2S,4S)-bicyclo[2.2.1]heptan-2-yl)amino)heptyl)thio)-1-oxoisoindolin-2-yl)piperidine-2,6-dione], in experiment [1], the IC50 amounted to 0.037 nM.

Turning to `Nc1cccc2c1C(=O)N(C1CCC(=O)NC1=O)C2=O` (centres unmarked) [pomalidomide, reference compound], the IC50 in experiment [1] turned out to be 9.4 ± 1.3 nM; in experiment [3] (Homo sapiens, MINO) it was 48 nM; in experiment [3], 48 nM.

Source of the values: patent US12582641B2, “Sulfur-containing compound based on glutarimide skeleton and application thereof” (SHANGHAITECH UNIVERSITY, priority 2019, dated 2026).
